The results in this text go back to patent publication EP1745781A1, “Combination of pyrazoline type cannabinoid receptor antagonist and statin” (LABORATORIOS DEL DR. ESTEVE, S.A., priority 2005, dated 2007).

Assay [1] concerns Male NMRI mice. Nature of the assay: Mouse tetrad model: sedation and ataxia. The note with it: for Agonistic effect D: Sedation: 5 mg/kg i.v.; for Antagonistic Effect D: Sedation: 5 mg/kg i.v. prior to Win 55212-2 in a dose of 1.25mg/kg i.v. Type of assay: in vivo. An excerpt: (§1) II. In-vivo bioassay system for determination of cannabinoid activity
(§2) Substances with affinity for cannabinoid receptors are known to produce a wide range of pharmacological effects. It is also known that intravenous administration of a substance with affinity for cannabinoid receptors in mice produces analgesia , hypothermia, sedation and catalepsy. Individually, none of these effects can be considered as proof that a tested substance has affinity for cannabinoid-receptors, since all of these effects are common for various classes of centrally active agents. However, substances, which show all of these effects, i.e. substances that are active in this so-called tetrad model are considered to have affinity for the cannabinoid receptors. It has further been shown that cannabinoid receptor antagonists are higly effective in blocking the effects of a cannabinoid agonist in the mouse tetrad model.
The tetrad model is described, for example, in the publication of A. C. Howlett et al, international Union of Pharmacology XXVII. Classification of Cannabinoid Receptors, Pharmacol Rev 54, 161-202 , 2002 and David R. Compton et al., "In-vivo Characterization of a Specific Cannabinoid Receptor Antagonist (SR141716A) :Inhibition of Tetrahydrocannbinol- induced Responses and Apparent Agonist Activity", J. Pharmacol. Exp. Ther. 277 , 2, 586-594, 1996. The corresponding parts of the description are hereby incorporated by reference.
Male NMRI mice with a weight of 20-30 g (Harlan, Barcelona, Spain) are used in all of the following experiments.
(§3) Before testing in the behavioral procedures given below, mice are acclimatized to the experimental setting. Pre-Treatment control values are determined for analgesia hot plate latency (in seconds), rectal temperature, sedation and catalepsy.
(§4) In order to determine the agonistic activty of the substance to be tested, the mice are injected intravenously with the substance to be tested or the vehicle alone. 15 minutes after injection, latency in hot plate analgesia is measured. Rectal temperature, sedation and catalepsy are measured 20 minutes after injection.
(§5) In order to determine the antagonistic activity the identical procedure is used as for the determination of the agonistic effects, but with the difference that the substance to be evaluated for its antagonistic activity is injectected 5 minutes before the intravenous injection of 1.25 mg/kg Win-55,212 a known cannabinoid-receptor agonist.
Determination of sedation and ataxia
Sedation and ataxia is determined according to the method described in Desmet L. K. C. et al. "Anticonvulsive properties of Cinarizine and Flunarizine in Rats and Mice", Arzneim. -Forsch. (Frug Res) 25, 9, 1975. […]
The percentage of sedation is determined according to the formula: %of sedation = arithmetic mean/3 × 100 [formula]

Assay [2] has as its system Male NMRI mice. Nature of the assay: Mouse tetrad model: catalepsy. Format: in vivo. As to conditions: for Agonistic effect C: Catalepsy: 5 mg/kg i.v.; for Antagonistic Effect C: Catalepsy: 5 mg/kg i.v. prior to Win 55212-2 in a dose of 1.25mg/kg i.v.
Description: as §1, §2
(§6) The tetrad model is described, for example, in the publication of A. C. Howlett et al, international Union of Pharmacology XXVII. Classification of Cannabinoid Receptors, Pharmacol Rev 54, 161-202 , 2002 and David R. Compton et al., "In-vivo Characterization of a Specific Cannabinoid Receptor Antagonist (SR141716A) :Inhibition of Tetrahydrocannbinol- induced Responses and Apparent Agonist Activity", J. Pharmacol. Exp. Ther. 277 , 2, 586-594, 1996. […]
as §3, §4, §5
Catalepsy is determined according to the method described in Alpermann H. G. et al. "Pharmacological effets of Hoe 249: A new potential antidepressant", Drugs Dev. […]
The cataleptic effect of the substance to be tested is evaluated according to the duration of catalepsy, whereby the animals are placed head downwards with their kinlegs upon the top of the wooden block. […]
The percentage of catalepsy is determined according ot the following formula: %Catalepsy = arithmetic mean/6 × 100 [formula]

For the next assay, the target named is T1, CB2-Receptor (Homo sapiens, UniProt P34972).
T1 construct: purchased Receptor Biology, Inc
T1 sequence (P34972 whole entry): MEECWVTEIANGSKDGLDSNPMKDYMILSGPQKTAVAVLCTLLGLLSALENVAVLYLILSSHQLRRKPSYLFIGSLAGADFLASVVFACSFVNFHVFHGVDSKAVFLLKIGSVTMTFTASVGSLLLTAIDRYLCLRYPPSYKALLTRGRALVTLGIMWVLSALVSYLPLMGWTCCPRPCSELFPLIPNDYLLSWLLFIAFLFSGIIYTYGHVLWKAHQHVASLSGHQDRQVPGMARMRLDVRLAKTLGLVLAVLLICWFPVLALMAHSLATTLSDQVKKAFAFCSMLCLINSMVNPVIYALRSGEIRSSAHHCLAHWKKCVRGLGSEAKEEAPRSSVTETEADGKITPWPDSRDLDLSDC
The experiment in a line: In-vitro determination of affinity to CB2 receptor (radioligand [^3H]-CP55940). Format: binding. The procedure:
(§7) I. In-vitro determination of affinity to CB1/CB2-Receptors
(§8) The in-vitro determination of the affinity of the substituted pyrazoline compounds to CB1/CB2-Rezeptors is carried out as described in the publication of Ruth A. Ross, Heather C. Brockie et al., "Agonist-inverse agonist characterization at CB1 and CB2 cannabinoid receptors of L-759633. L759656 and AM630", British Journal of Pharmacology, 126, 665-672, (1999), whereby the transfected human CB1 and CB2 receptors of Receptor Biology, Inc. are used. The radioligand used for both receptors is [^3H]-CP55940. The respective parts of the description is hereby incorporated by reference and forms part of the present disclosure.

The subject of assay [3] is Male NMRI mice. Nature of the assay: Mouse tetrad model: hot plate analgesia. As to conditions: for Agonistic effect A: Hot-Plate test: 5 mg/kg i.v.; for Antagonistic Effect A: Hot-Plate test: 5 mg/kg i.v. prior to Win 55212-2 in a dose of 1.25mg/kg i.v. Type of assay: in vivo.
Description: as §1, §2
The tetrad model is described, for example, in the publication of A. C. Howlett et al, international Union of Pharmacology XXVII. Classification of Cannabinoid Receptors, Pharmacol Rev 54, 161-202 , 2002 and David R. Compton et al., "In-vivo Characterization of a Specific Cannabinoid Receptor Antagonist (SR141716A) :Inhibition of Tetrahydrocannbinol- induced Responses and Apparent Agonist Activity", J. Pharmacol. Exp. Ther. 277 , 2, 586-594, 1996. The corresponding parts of the description are hereby incorporated by reference. […]
as §3, §4, §5
The hot plate analgesia is determined according to the method described in Woolfe D. et al. "The evaluation of analgesic action of pethidine hydrochloride (Demerol)", J. Pharmacol. Exp. Ther. 80, 300-307,1944. […]
The mice are placed on a hot plate (Harvard Analgesimeter) at 55 ± 0.5 °C until they show a painful sensation by licking their paws or jumping and the time for these sensations to occur is recorded. This reading is considered the basal value (B). […]
In general terms: Thermal pain tests record how soon the animal reacts.

The subject of assay [4] is Male NMRI mice. The experiment in a line: Mouse tetrad model: hypothermia. Format: in vivo. The note with it: for Agonistic effect B: Hypothermia: 5 mg/kg i.v.; for Antagonistic Effect B: Hypothermia: 5 mg/kg i.v. prior to Win 55212-2 in a dose of 1.25mg/kg i.v.
Description: as §1, §2, §6, §3, §4, §5
Hypothermia is determined according to the method described in David R. Compton et al. "In-vivo Characterization of a Specific Cannabinoid Receptor Antagonist (SR141716A) Inhibition of Tetrahydrocannbinol- induced Responses and Apparent Agonist Activity", J. Pharmacol Exp Ther. 277 , 2, 586-594, 1996. […]
The base-line rectal temperatures are determined with a thermometer (Yello Springs Instruments Co., Panlabs) and a thermistor probe inserted to 25mm before the administration of the substance to be tested. […]

The target of another assay is T2, CB1-Receptor (Homo sapiens, UniProt P21554).
T2 construct: purchased Receptor Biology, Inc
T2 sequence (P21554 whole entry): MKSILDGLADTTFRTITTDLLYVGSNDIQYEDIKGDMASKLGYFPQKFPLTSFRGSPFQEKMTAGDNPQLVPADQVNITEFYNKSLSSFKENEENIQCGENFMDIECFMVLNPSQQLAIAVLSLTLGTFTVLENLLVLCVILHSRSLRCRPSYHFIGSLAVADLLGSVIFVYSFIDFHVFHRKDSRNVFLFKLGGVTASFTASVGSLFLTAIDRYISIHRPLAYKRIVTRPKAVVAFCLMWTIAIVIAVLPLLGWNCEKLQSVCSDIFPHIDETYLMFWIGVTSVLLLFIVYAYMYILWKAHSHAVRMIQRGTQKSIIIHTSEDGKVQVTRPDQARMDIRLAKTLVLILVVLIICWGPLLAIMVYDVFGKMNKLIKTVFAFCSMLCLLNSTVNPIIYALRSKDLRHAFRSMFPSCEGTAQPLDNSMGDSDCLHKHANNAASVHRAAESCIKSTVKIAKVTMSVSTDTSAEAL
Nature of the assay: In-vitro determination of affinity to CB1 receptor (radioligand [^3H]-CP55940). Type of assay: binding. How it is done: as §7, §8

pKi: −log10 of the molar value.

By pKi is commonly meant −log10 of the Ki, conventionally taken in molar units. Higher therefore signals a small Ki. For the compound `O=C(C1=NN(c2ccc(Cl)cc2Cl)C(c2ccc(Cl)cc2)C1)N1CCCCC1` (stereo not shown) [Example 5, [5-(4-Chloro-phenyl)-1-(2,4-dichloro-phenyl)-4,5-dihydro-1H-pyrazol-3-yl]-piperidin-1-yl-methanone], in the assay on Male NMRI mice [1], the “Agonistic effect D: Sedation” value is reported as 0 and the “Antagonistic Effect D: Sedation” value stood at 20. Further, in the assay with Male NMRI mice [2], the “Agonistic effect C: Catalepsy” value is recorded as 0 and the “Antagonistic Effect C: Catalepsy” value came out at 20. For the same compound, the pKi at CB2-Receptor was roughly 6.00. In the assay with Male NMRI mice [3], the “Agonistic effect A: Hot-Plate test” value was 0 and the “Antagonistic Effect A: Hot-Plate test” value amounted to 50. In the assay on Male NMRI mice [4], the “Agonistic effect B: Hypothermia” value is given as 50 and the “Antagonistic Effect B: Hypothermia” value worked out at 40.

With `O=C(NN1CCCCC1)C1=NN(c2ccc(Cl)cc2Cl)C(c2ccc(Cl)cc2)C1` (stereo not shown) [Example 1, N-piperidinyl-5-(4-chlorophenyl)-1-(2,4-dichlorophenyl)-4,5-dihydro-1H-pyrazole-3-carboxamide], in the assay with Male NMRI mice [1], the “Agonistic effect D: Sedation” value was found to be 0 and the “Antagonistic Effect D: Sedation” value came to 100. For the same compound, the pKi on CB1-Receptor was greater than 7.60. Besides, in the assay on Male NMRI mice [2], the “Agonistic effect C: Catalepsy” value amounted to 0 and the “Antagonistic Effect C: Catalepsy” value is listed as 100. The compound also had a negative logarithm of the Ki (pKi) on CB2-Receptor of less than 6.00. In the assay with Male NMRI mice [3], the “Agonistic effect A: Hot-Plate test” value is listed as 0 and the “Antagonistic Effect A: Hot-Plate test” value was 74. Also, in the assay with Male NMRI mice [4], the “Agonistic effect B: Hypothermia” value is 0 and the “Antagonistic Effect B: Hypothermia” value is recorded as 100.
